Assays:
[1] = test system: seasonal allergic rhinitis patients; assay: double-blinded, randomized clinical trials in seasonal allergic rhinitis patients; assay type: in vivo, human
Experimental: Efficacy endpoints in all the studies were Total Symptom Score, Total Nasal Symptom Score, Total Non-nasal Symptom Score, and Health Quality of Life (HQOL) analysis in efficacy trials. […] An important efficacy endpoint analyzed in the desloratadine studies is the AM NOW total symptom score. This parameter measures the total symptom relief by the patient after 24 hours before taking the next day dose.

[2] = test system: patients with SAR; assay: pooled randomized, parallel-group, double-blind, placebo-controlled studies; nasal congestion/stuffiness severity score in patients with SAR; assay type: in vivo, human; conditions: for nasal congestion/stuffiness, 14-day average change in symptom severity score from baseline: baseline score 2.4
Experimental: The severity (0=none, 1=mild, 2=moderate, 3=severe) of congestion/stuffiness was assessed by patients for the study duration. The 14-day average change in symptom severity score from baseline was assessed. The mean symptom severity score for nasal congestion/stuffiness was 2.4 in each treatment group at baseline, indicating patients had moderate-to-severe nasal congestion before receiving treatment.

[3] = stability of free base versus acid addition salt; assay type: physicochemical
Excerpt: Such pharmaceutical compositions may be formulated by combining desloratadine or an equivalent amount of a pharmaceutically acceptable salt thereof with a suitable, inert, pharmaceutically acceptable carrier or diluent that may be either solid or liquid. Desloratadine may be converted into the pharmaceutically acceptable acid addition salts by admixing it with an equivalent amount of a pharmaceutically acceptable acid. Typically suitable pharmaceutically acceptable acids include the mineral acids, e.g., HNO3, H2SO4, H3PO4, HCl, HBr, organic acids, including, but not limited to, acetic, trifluoroacetic, propionic, lactic, maleic, succinic, tartaric, glucuronic and citric acids as well as alkyl or arylsulfonic acids, such as p-toluenesulfonic acid, 2-naphthalenesulfonic acid, or methanesulfonic acid. The preferred pharmaceutically acceptable salts are trifluoroacetate, tosylate, mesylate, and chloride.

## Clc1ccc2c(c1)CCc1cccnc1C2=C1CCNCC1 [Desloratadine]
[1]; 5 mg once daily, adult and adolescent seasonal allergic rhinitis patients
  total symptom scores (sum of individual scores for rhinorrhea, sneezing, congestion/stuffiness, nasal itching, itchy/burning eyes, tearing, ocular redness, itchy ears/palate): significantly reduced
[1]; 5 mg to 20 mg dosage range, p<0.05
  AM NOW total symptom score (symptom relief after 24 hours, before next day dose): Statistically significant (p<0.05) reductions were maintained for the full 24 hour dosing interval
[1]; 5 mg, p<0.01 vs placebo
  reducing nasal symptoms vs placebo: significantly (p<0.01) more effective than placebo
[2]; 5 mg PO once a day for 14 days, P=0.02 vs placebo
  nasal congestion/stuffiness, 14-day average change in symptom severity score from baseline: significantly decreased
[2]; 5 mg or 7.5 mg PO once a day for 14 days, vs placebo
  total symptom severity: significantly decreased
[2]; 7.5 mg PO once a day for 14 days, P=0.01 vs placebo
  nasal congestion/stuffiness, 14-day average change in symptom severity score from baseline: significantly decreased
[3]
  stability, free base compared with acid addition salt: more stable as the free base than as an acid addition salt
